# Reference: PubChem BioAssay (NCI)
#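 Dose response: 5 concentrations. Exposure: 48 h. Format: 96-well plates. Endpoint: linear interpolation; highest concentration if not reached. GI50 = concentration required for 50% inhibition of growth. TGI: total growth inhibition.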
# Columns and labels:
# Experiment in all cases: NCI-60 cell line screen, 48 h
# [1] = test system: 786-0 renal
# [2] = test system: A498 renal
# [3] = test system: A549 NSCLC
# [4] = test system: ACHN renal
# [5] = test system: BT-549 breast
# [6] = test system: CAKI-1 renal
# [7] = test system: CCRF-CEM leukemia
# [8] = test system: COLO 205 colon
# [9] = test system: DU-145 prostate
# [10] = test system: EKVX NSCLC
# [11] = test system: HCC-2998 colon
# [12] = test system: HCT-116 colon
# [13] = test system: HCT-15 colon
# [14] = test system: HL-60(TB) leukemia
# [15] = test system: HOP-62 NSCLC
# [16] = test system: HOP-92 NSCLC
# [17] = test system: HS 578T breast
# [18] = test system: HT29 colon
# [19] = test system: IGROV1 ovarian
# [20] = test system: K-562 leukemia
# [21] = test system: KM12 colon
# [22] = test system: LOX IMVI melanoma
# [23] = test system: M14 melanoma
# [24] = test system: MALME-3M melanoma
# [25] = test system: MCF7 breast
# [26] = test system: MDA-MB-231 breast
# [27] = test system: MDA-MB-435
# [28] = test system: MOLT-4 leukemia
# [29] = test system: NCI-H226 lung
# [30] = test system: NCI-H23 lung
# [31] = test system: NCI-H460 lung
# [32] = test system: NCI-H522 lung
# [33] = test system: NCI/ADR-RES ovarian
# [34] = test system: OVCAR-3 ovarian
# [35] = test system: OVCAR-4 ovarian
# [36] = test system: OVCAR-5 ovarian
# [37] = test system: OVCAR-8 ovarian
# [38] = test system: PC-3 prostate
# [39] = test system: RPMI-8226 leukemia
# [40] = test system: RXF 393 renal
# [41] = test system: SF-268 CNS
# [42] = test system: SF-295 CNS
# [43] = test system: SF-539 CNS
# [44] = test system: SK-MEL-2 melanoma
# [45] = test system: SK-MEL-28 melanoma
# [46] = test system: SK-MEL-5 melanoma
# [47] = test system: SK-OV-3 ovarian
# [48] = test system: SN12C renal
# [49] = test system: SNB-19 CNS
# [50] = test system: SNB-75 CNS
# [51] = test system: SR leukemia
# [52] = test system: SW-620 colon
# [53] = test system: T-47D breast
# [54] = test system: TK-10 renal
# [55] = test system: U251 CNS
# [56] = test system: UACC-257 melanoma
# [57] = test system: UACC-62 melanoma
# [58] = test system: UO-31 renal
smiles,measurement,setting,value
c1ccc(-c2c(-c3ccccc3)[n+](Cc3ccc4ccccc4c3)c(-c3cccc4ccccc34)n2Cc2ccc3ccccc3c2)cc1,GI50,[1],231 nM
same,TGI,[1],1630 nM
same,GI50,[2],< 47.1 nM
same,TGI,[2],398 nM
same,GI50,[3],166 nM
same,TGI,[3],1570 nM
same,GI50,[4],249 nM
same,TGI,[4],743 nM
same,GI50,[5],122 nM
same,TGI,[5],1180 nM
same,GI50,[6],265 nM
same,TGI,[6],1010 nM
same,GI50,[7],128 nM
same,TGI,[7],1660 nM
same,GI50,[8],76.5 nM
same,TGI,[8],228 nM
same,GI50,[9],262 nM
same,TGI,[9],1440 nM
same,GI50,[10],187 nM
same,TGI,[10],1430 nM
same,GI50,[11],131 nM
same,TGI,[11],1500 nM
same,GI50,[12],92.7 nM
same,TGI,[12],1250 nM
same,GI50,[13],327 nM
same,TGI,[13],1210 nM
same,GI50,[14],34.2 nM
same,TGI,[14],228 nM
same,GI50,[15],301 nM
same,TGI,[15],1780 nM
same,GI50,[16],79.1 nM
same,TGI,[16],479 nM
same,GI50,[17],302 nM
same,TGI,[17],2200 nM
same,GI50,[18],46.6 nM
same,TGI,[18],1100 nM
same,GI50,[19],147 nM
same,TGI,[19],1390 nM
same,GI50,[20],45.1 nM
same,TGI,[20],> 100000 nM
same,GI50,[21],98.7 nM
same,TGI,[21],758 nM
same,GI50,[22],150 nM
same,TGI,[22],496 nM
same,GI50,[23],187 nM
same,TGI,[23],1440 nM
same,GI50,[24],91 nM
same,TGI,[24],1000 nM
same,GI50,[25],169 nM
same,TGI,[25],1070 nM
same,GI50,[26],220 nM
same,TGI,[26],1000 nM
same,GI50,[27],284 nM
same,TGI,[27],1180 nM
same,GI50,[28],233 nM
same,TGI,[28],1270 nM
same,GI50,[29],203 nM
same,TGI,[29],828 nM
same,GI50,[30],146 nM
same,TGI,[30],748 nM
same,GI50,[31],154 nM
same,TGI,[31],1140 nM
same,GI50,[32],253 nM
same,TGI,[32],978 nM
same,GI50,[33],1300 nM
same,TGI,[33],2940 nM
same,GI50,[34],94.5 nM
same,TGI,[34],1280 nM
same,GI50,[35],187 nM
same,TGI,[35],1120 nM
same,GI50,[36],321 nM
same,TGI,[36],1350 nM
same,GI50,[37],153 nM
same,TGI,[37],1540 nM
same,GI50,[38],64.1 nM
same,TGI,[38],1210 nM
same,GI50,[39],32.6 nM
same,TGI,[39],295 nM
same,GI50,[40],220 nM
same,TGI,[40],949 nM
same,GI50,[41],220 nM
same,TGI,[41],1760 nM
same,GI50,[42],90.6 nM
same,TGI,[42],458 nM
same,GI50,[43],371 nM
same,TGI,[43],1500 nM
same,GI50,[44],140 nM
same,TGI,[44],758 nM
same,GI50,[45],191 nM
same,TGI,[45],1880 nM
same,GI50,[46],155 nM
same,TGI,[46],296 nM
same,GI50,[47],207 nM
same,TGI,[47],973 nM
same,GI50,[48],127 nM
same,TGI,[48],1140 nM
same,GI50,[49],108 nM
same,TGI,[49],1420 nM
same,GI50,[50],192 nM
same,TGI,[50],955 nM
same,GI50,[51],192 nM
same,TGI,[51],1530 nM
same,GI50,[52],151 nM
same,TGI,[52],1330 nM
same,GI50,[53],64.8 nM
same,TGI,[53],1270 nM
same,GI50,[54],239 nM
same,TGI,[54],1530 nM
same,GI50,[55],74.7 nM
same,TGI,[55],1460 nM
same,GI50,[56],221 nM
same,TGI,[56],958 nM
same,GI50,[57],286 nM
same,TGI,[57],1400 nM
same,GI50,[58],306 nM
same,TGI,[58],1280 nM
NS(=O)(=O)N(c1cc(C(F)(F)F)cc(C(F)(F)F)c1)C1CCN(Cc2ccc(F)cc2)CC1,GI50,[1],11400 nM
same,TGI,[1],23500 nM
same,GI50,[2],12300 nM
same,TGI,[2],26100 nM
same,GI50,[3],12400 nM
same,TGI,[3],29100 nM
same,GI50,[4],11200 nM
same,TGI,[4],23300 nM
same,GI50,[5],12500 nM
same,TGI,[5],24900 nM
same,GI50,[6],7210 nM
same,TGI,[6],20400 nM
same,GI50,[7],12000 nM
same,TGI,[7],36300 nM
same,GI50,[8],1640 nM
same,TGI,[8],3080 nM
same,GI50,[9],13500 nM
same,TGI,[9],26300 nM
same,GI50,[10],11200 nM
same,TGI,[10],23800 nM
same,GI50,[11],1830 nM
same,TGI,[11],3560 nM
same,GI50,[12],7380 nM
same,TGI,[12],19800 nM
same,GI50,[13],7300 nM
same,TGI,[13],21800 nM
same,GI50,[14],9110 nM
same,TGI,[14],28600 nM
same,GI50,[15],3510 nM
same,TGI,[15],14100 nM
same,GI50,[16],1870 nM
same,TGI,[16],15200 nM
same,GI50,[17],13800 nM
same,TGI,[17],33600 nM
same,GI50,[18],2680 nM
same,TGI,[18],7510 nM
same,GI50,[19],4890 nM
same,TGI,[19],18000 nM
same,GI50,[20],3680 nM
same,TGI,[20],19000 nM
same,GI50,[21],5160 nM
same,TGI,[21],17000 nM
same,GI50,[22],3830 nM
same,TGI,[22],13700 nM
same,GI50,[23],6120 nM
same,TGI,[23],18400 nM
same,GI50,[24],2310 nM
same,TGI,[24],9500 nM
same,GI50,[25],5440 nM
same,TGI,[25],18500 nM
same,GI50,[26],12100 nM
same,TGI,[26],26200 nM
same,GI50,[27],6400 nM
same,TGI,[27],19700 nM
same,GI50,[28],8510 nM
same,TGI,[28],29600 nM
same,GI50,[29],6730 nM
same,TGI,[29],21700 nM
same,GI50,[30],10400 nM
same,TGI,[30],22100 nM
same,GI50,[31],13200 nM
same,TGI,[31],31000 nM
same,GI50,[32],3520 nM
same,TGI,[32],13400 nM
same,GI50,[33],6720 nM
same,TGI,[33],19400 nM
same,GI50,[34],7600 nM
same,TGI,[34],20400 nM
same,GI50,[35],10500 nM
same,TGI,[35],22200 nM
same,GI50,[36],10900 nM
same,TGI,[36],23200 nM
same,GI50,[37],15500 nM
same,TGI,[37],33900 nM
same,GI50,[38],4540 nM
same,TGI,[38],17600 nM
same,GI50,[39],5240 nM
same,TGI,[39],22300 nM
same,GI50,[40],4420 nM
same,TGI,[40],16600 nM
same,GI50,[41],10900 nM
same,TGI,[41],22900 nM
same,GI50,[42],13800 nM
same,TGI,[42],27700 nM
same,GI50,[43],14100 nM
same,TGI,[43],27600 nM
same,GI50,[44],5870 nM
same,TGI,[44],18100 nM
same,GI50,[45],11600 nM
same,TGI,[45],23800 nM
same,GI50,[46],3440 nM
same,TGI,[46],12700 nM
same,GI50,[47],10900 nM
same,TGI,[47],23300 nM
same,GI50,[48],2970 nM
same,TGI,[48],11600 nM
same,GI50,[49],14300 nM
same,TGI,[49],27800 nM
same,GI50,[50],13200 nM
same,TGI,[50],25900 nM
same,GI50,[51],2400 nM
same,TGI,[51],9020 nM
same,GI50,[52],13700 nM
same,TGI,[52],30700 nM
same,GI50,[53],2740 nM
same,TGI,[53],13900 nM
same,GI50,[54],12200 nM
same,TGI,[54],25400 nM
same,GI50,[55],10700 nM
same,TGI,[55],24500 nM
same,GI50,[56],11500 nM
same,TGI,[56],25300 nM
same,GI50,[57],12700 nM
same,TGI,[57],25600 nM
same,GI50,[58],3670 nM
same,TGI,[58],16400 nM
